According to patent publication US6440986B2, “HIV Inhibiting pyrimidine derivatives” (Janssen Pharmaceutica, N.V., priority 1998, dated 2002):
Structures can show the parent of a compound that is named as a salt. Where two headings read alike, the source gives them in different places.

Columns and labels:
Format in all cases: cell-based
[1] = cytotoxicity in mock-infected MT-4 cells (MTT); details: human, mock-infected MT-4 cells, 50% cytotoxic concentration; reduces absorbance of mock-infected MT-4 control by 50%; MTT
Experimental: (§1) A rapid, sensitive and automated assay procedure was used for the in vitro evaluation of anti-HIV agents. […] Inhibition of the HIV-induced cytopathic effect was used as the end point. The viability of both HIV- and mock-infected cells was assessed spectrophotometrically via the in situ reduction of 3-(4,5-dimethylthiazol-2-yl)-2,5-diphenyltetrazolium bromide (MTT). […] The percent protection achieved by the compound in HIV-infected cells was calculated by the following formula: [formula]
(§2) whereby (ODT)HIV is the optical density measured with a given concentration of the test compound in HIV-infected cells; (ODC)HIV is the optical density measured for the control untreated HIV-infected cells: (ODC)MOCK is the optical density measured for the control untreated mock-infected cells; all optical density values were determined at 540 nm. […] The ratio of CC50 to IC50 was defined as the selectivity index (SI).

HIV-1 = test: in vitro anti-HIV assay: inhibition of the HIV-induced cytopathic effect in MT-4 cells (MTT); details: OD 540 nm
Experimental: A rapid, sensitive and automated assay procedure was used for the in vitro evaluation of anti-HIV agents. An […] T4-cell line, MT-4, which was previously shown (Koyanagi et al., Int. J. Cancer, 36, 445-451, 1985) to be highly susceptible to and permissive for HIV infection, served as the target cell line. Inhibition of the HIV-induced cytopathic effect was used as the end point. The viability of both HIV- and mock-infected cells was assessed spectrophotometrically via the in situ reduction of 3-(4,5-dimethylthiazol-2-yl)-2,5-diphenyltetrazolium bromide (MTT). […] The percent protection achieved by the compound in HIV-infected cells was calculated by the following formula: [formula]
as §2

[2] = tested on: MT-4 cells (mock-infected); test: cytotoxicity in mock-infected MT-4 cells (MTT)
Experimental: as §1, §2

[3] = Human immunodeficiency virus 1, MT4, dose achieving 50% protection of HIV-infected MT-4 cells against cytopathic effect
[4] = dose achieving 50% protection of HIV-infected MT-4 cells against cytopathic effect
[5] = 50% cytotoxic concentration, reduces absorbance of mock-infected MT-4 control by 50%, MTT, read-out: CC50

SMILES | CC50 [1] | IC50 (HIV-1; [3]) | CC50 [2] | IC50 (HIV-1; [4]) | CC50 [2, 5]
N#Cc1ccc(Nc2cc(Cc3c(Cl)cccc3Cl)nc(NCCCN3CCCC3=O)n2)cc1 [Compound 39, 4-[[6-[(2,6-dichloro-phenyl)methyl]-2-[[3-(2-oxo-1-pyrrolidinyl)propyl]amino]-4-pyrimidinyl]amino]benzonitrile] | > 100000 nM | 1530 nM |  |  | 
Cc1cnc(Nc2ccc(C#N)cc2)nc1Nc1c(C)cc(C#N)cc1C [Compound 89, 4-[[2-[(4-cyanophenyl)amino]-5-methyl-4-pyrimidinyl]amino]-3,5-dimethylbenzonitrile] | 400 nM | 0.7 nM |  |  | 
Cc1cc(C)c(Oc2ccnc(Nc3ccc(C#N)cc3)n2)c(C)c1 [Compound 58, 4-[[4-(2,4,6-trimethylphenoxy)-2-pyrimidinyl]amino]benzonitrile] | > 100000 nM | 2.9 nM |  |  | 
Cc1cc(C)c(Nc2ccnc(Nc3ccc(C(N)=O)cc3)n2)c(C)c1 [Compound 100, 4-[[4-[(2,4,6-trimethylphenyl)amino]-2-pyrimidinyl]amino]benzamide] | 800 nM | 75 nM |  |  | 
N#Cc1ccc(Nc2nccc(Nc3c(Cl)cc(OC(F)(F)F)cc3Cl)n2)cc1 [Compound 77] |  |  | 9.6 µM | 3 nM | 
N#Cc1ccc(Nc2nc(Cc3c(Cl)cccc3Cl)cc(NCCCO)n2)cc1 [Compound 3, 4-[[4-[(2,6-dichloro-phenyl)methyl]-6-[(3-hydroxypropyl)amino]-2-pyrimidinyl]amino]benzonitrile] | 37400 nM | 16 nM |  |  | 
N#Cc1ccc(Nc2cc(Cc3c(Cl)cccc3Cl)nc(NCCO)n2)cc1 [Compound 40] |  |  |  | 253 nM | 40.2 µM
Nc1nc(Cc2c(Cl)cccc2Cl)cc(Nc2ccc(Br)cc2)n1 [Compound 28] |  |  |  | 79 nM | > 20 µM
N#Cc1ccc(Nc2cc(N)nc(Cc3c(Cl)cccc3Cl)n2)cc1 [Compound 51] |  |  | > 100 µM | 452 nM | 
Cc1cc(C)c(Nc2ccnc(Nc3ccc(C#N)cc3)n2)c(C)c1 [Compound 52, 4-[[4-[(2,4,6-trimethylphenyl)amino]-2-pyrimidinyl]amino]benzonitrile] | 2080 nM | 1 nM |  |  | 
Cc1cc(C)c(Nc2ccnc(Nc3ccc(Br)cn3)n2)c(C)c1 [Compound 98] |  |  | 13.8 µM | 2000 nM | 
N#Cc1ccc(Nc2cc(Oc3c(Cl)cccc3Cl)nc(N)n2)cc1 [Compound 50] |  |  | 52 µM | 518 nM | 
Cc1cnc(Nc2ccc(C#N)cc2)nc1Nc1c(C)cc(Br)cc1C [Compound 85] |  |  | 0.4 µM | 2 nM | 
Cc1cc(Cl)cc(Cl)c1Nc1ccnc(Nc2ccc(C#N)cc2)n1 [Compound 68] |  |  | 1.4 µM | 1 nM | 
Cc1ccc(Nc2nc(N)cc(Cc3c(Cl)cccc3Cl)n2)cc1 [Compound 35] |  |  |  | 103 nM | 42.3 µM
N#Cc1ccc(Nc2nc(Cc3c(Cl)cccc3Cl)cc(NCCOCCO)n2)cc1 [Compound 6] |  |  | 24.4 µM | 20 nM | 
Nc1nc(Cc2c(Cl)cccc2Cl)cc(Nc2ccccc2)n1 [Compound 38] |  |  |  | 2450 nM | 32.4 µM
Cc1cnc(Nc2ccc(C#N)cc2)nc1Nc1c(C)cc(Cl)cc1C [Compound 82] |  |  | 0.4 µM | 2.6 nM | 
Cc1cc(C)c(Nc2ccnc(Nc3ccc(F)cc3F)n2)c(C)c1 [Compound 97] |  |  | 13.2 µM | 32 nM | 
N#Cc1ccc(Nc2nccc(Nc3c(Cl)cc(F)cc3Br)n2)cc1 [Compound 67] |  |  | 0.4 µM | 2.4 nM | 
Cc1cc(C)c(Nc2nc(Nc3ccc(C#N)cc3)ncc2C)c(C)c1 [Compound 63] |  |  | 0.3 µM | 1.7 nM | 
N#Cc1ccc(Nc2nc(Cc3c(Cl)cccc3Cl)cc(NCCc3ccccn3)n2)cc1 [Compound 16] |  |  | 41.2 µM | 389 nM | 
CC(=O)Nc1cc(Cc2c(Cl)cccc2Cl)nc(Nc2ccc(C#N)cc2)n1 [Compound 21] |  |  | 50.6 µM | 17 nM | 
N#Cc1ccc(Nc2nc(Cc3c(Cl)cccc3Cl)cc(NCCc3cccs3)n2)cc1 [Compound 14] |  |  | 89 µM | 2180 nM | 

SMILES | CC50 [1] | IC50 (HIV-1; [3]) | CC50 [2] | IC50 (HIV-1; [4]) | CC50 [2, 5]
Nc1nc(Cc2c(Cl)cccc2Cl)cc(Nc2ccc(Cl)cc2)n1 [Compound 30] |  |  |  | 88 nM | > 20 µM
N#Cc1ccc(Nc2nc(Cc3c(Cl)cccc3Cl)cc(NO)n2)cc1 [Compound 15, 4-[[4-[(2,6-dichloro-phenyl)methyl]-6-(hydroxyamino)-2-pyrimidinyl]amino]benzonitrile dihydrobromide.pentahydrate] |  |  | 9 µM | 3 nM | 
Nc1cc(Cc2c(Cl)cccc2Cl)nc(Nc2ccc(Cl)cc2)n1 [Compound 29] |  |  |  | 15 nM | > 20 µM
Cc1cc(C)c(Nc2cc(Nc3ccc(C#N)cc3)nc(N)n2)c(C)c1 [Compound 95] |  |  | 7.7 µM | 0.6 nM | 
Cc1ccc(Nc2cc(Cc3c(Cl)cccc3Cl)nc(N)n2)cc1 [Compound 36] |  |  |  | 323 nM | > 100 µM
Cc1cc(Cl)cc(C)c1Nc1ccnc(Nc2ccc(C#N)cc2)n1 [Compound 75] |  |  | 1.9 µM | 2.1 nM | 
Cc1cc(C)c(Nc2ccnc(Nc3ccc(Cl)cc3)n2)c(C)c1 [Compound 96] |  |  | 5.8 µM | 3.1 nM | 
N#Cc1ccc(Nc2nc(Cc3c(Cl)cccc3Cl)cc(NCc3ccccc3)n2)cc1 [Compound 12] |  |  | 55.1 µM | 1680 nM | 
Clc1cccc(Cl)c1Nc1ccnc(Nc2c(Cl)cccc2Cl)n1 [Compound 92] |  |  | > 90 µM | 45000 nM | 
CNc1cc(Cc2c(Cl)cccc2Cl)nc(Nc2ccc(C#N)cc2)n1 [Compound 24] |  |  | 54 µM | 20 nM | 
Nc1nc(Cc2c(Cl)cccc2Cl)cc(Nc2ccc(Br)cn2)n1 [Compound 31] |  |  |  | 24 nM | 86.8 µM
Cc1cc(Cl)cc(Cl)c1Oc1ccnc(Nc2ccc(C#N)cc2)n1 [Compound 64] |  |  | > 100 µM | 120 nM | 
Cc1c(Cc2c(Cl)cccc2Cl)nc(N)nc1Nc1ccc(C#N)cc1 [Compound 46] |  |  |  | 45200 nM | > 100 µM
N#Cc1ccc(Nc2nccc(Nc3c(Cl)cc(Cl)cc3Cl)n2)cc1 [Compound 72] |  |  | 0.5 µM | 0.7 nM | 
N#Cc1ccc(Nc2nc(Cc3c(Cl)cccc3Cl)cc(NCCO)n2)cc1 [Compound 2] |  |  | > 100 µM | 35 nM | 
Cc1cc(Cl)cc(Br)c1Oc1ccnc(Nc2ccc(C#N)cc2)n1 [Compound 74] |  |  | > 100 µM | 10 nM | 
N#Cc1ccc(Nc2cc(Cc3c(Cl)cccc3Cl)nc(NCCCCO)n2)cc1 [Compound 43] |  |  |  | 603 nM | > 100 µM
Nc1cc(Cc2c(Cl)cccc2Cl)nc(Nc2ccc(F)cc2)n1 [Compound 33] |  |  |  | 42 nM | 43.4 µM
Cc1cc(C)c(Sc2ccnc(Nc3ccc(C#N)cc3)n2)c(C)c1 [Compound 73] |  |  | > 100 µM | 3.6 nM | 
N#Cc1ccc(Nc2nccc(Nc3c(Cl)cc(Br)c(Cl)c3Br)n2)cc1 [Compound 78] |  |  | 0.4 µM | 2.8 nM | 
Cc1cnc(Nc2ccc(C#N)cc2)nc1Nc1c(C)cc(C(C)(C)C)cc1C [Compound 84] |  |  | 9.3 µM | 12 nM | 
Cc1cc(C)c(Nc2ccnc(Nc3ccc(C#N)c(O)c3)n2)c(C)c1 [Compound 91] |  |  | 4.9 µM | 2.5 nM | 
CCOC(=O)Nc1cc(Cc2c(Cl)cccc2Cl)nc(Nc2ccc(C#N)cc2)n1 [Compound 20] |  |  | 36.5 µM | 26 nM | 
Cc1cc(C)c(Sc2nc(Nc3ccc(C#N)cc3)ncc2C)c(C)c1 [Compound 86] |  |  | > 100 µM | 10 nM | 
